# Assay results reported in patent publication US20130035326A1 (AMBIT BIOSCIENCES CORPORATION, priority 2009, published 2013).
# Tests used:
# KIT kinase = molecular target: T1, KIT kinase (Homo sapiens, UniProt P10721); test: Competition binding assay, KIT Kd
# T1 construct: made in house; host or cells: T7 phage display or HEK-293 cells
# Procedure: (§1) In certain embodiments, competition binding assays were performed as described in Fabian et al., Nature Biotechnology 2005, 23,329-336.
# (§2) Competition binding assays used herein were developed, validated and performed as described in Fabian et al., Nature Biotechnology 2005, 23,329-336. Kinases were produced as fusions to T7 phage (See, Fabian et al. or WO04/015142) or alternatively, the kinases were expressed in HEK-293 cells and subsequently tagged with DNA for PCR detection (See, WO08/005,310). For the binding assays, streptavidin-coated magnetic beads were treated with biotinylated affinity ligands for 30 min at room temperature to generate affinity resins. The liganded beads were blocked with excess biotin and washed with blocking buffer (SeaBlock (Pierce), 1% BSA, 0.05% Tween 20, 1 mM DTT) to remove unbound ligand and to reduce non-specific binding. Binding reactions were assembled by combining kinase, liganded affinity beads, and test compounds in 1× binding buffer (20% SeaBlock, 0.17×PBS, 0.05% Tween 20, 6 mM DTT). Test compounds were prepared as 100× stocks in DMSO and diluted into the aqueous environment. Kds were determined using an eleven point threefold serial dilutions. DMSO or control compounds were was added to control assays lacking a test compound. Primary screen assays were performed in polypropylene 384-well plates in a final volume of 20-40 μL, while Kd determinations were performed in polystyrene 96-well plates in a final volume of 135 μL. The assay plates were incubated at room temperature with shaking for 1 hour to allow the binding reactions to reach equilibrium, and the affinity beads were washed extensively with wash buffer (1×PBS, 0.05% Tween 20) to remove unbound protein. The beads were then resuspended in elution buffer (1×PBS, 0.05% Tween 20, 0.5 μM non-biotinylated affinity ligand) and incubated at room temperature with shaking for 30 min. The kinase concentration in the eluates was measured by quantitative PCR.
# MV4-11 cells = test: MV4-11 cell proliferation assay (Alamar Blue); format: cell-based; settings: Homo sapiens, MV4-11, 72 h, 3 days incubation
# Procedure: The compounds disclosed herein were tested in an MV4-11 cell proliferation assay to determine their cellular potency against Flt3. MV4-11 cells carry ITD mutation within juxtamembrane domain of Flt3 kinase which renders the kinase constitutively active. […] This assay measures the potency of compounds as Flt3 inhibitors by measuring the reduction of Alamar Blue reagent by viable cells.
# MV4-11 cells were grown in an incubator at 37° C. under 5% CO2 in Iscove's media (Celgro) with 10% FBS. The cell density was kept between 1e5 and 8e5 cells/mL.
# On day one of the experiment, cells were harvested and spun at 500 g for 5 min at 4° C., the supernatant aspirated and the cells resuspended in Iscove's media with 0.5% FBS. Cell density was maintained at 7.5e5 to achieve maximum viability of the cells. The resuspended cells were incubated at 37° C. in 5% CO2 overnight.
# On day two of the experiment, cells were diluted to 6.4e5/mL with Iscove's media with 0.5% FBS. 100 μL of the cell suspension (64,000 cells) were aliquoted into each well of a 96-well TC-treated plate. Compounds were added at 9 different concentrations, with half-log intervals alongside a control reference compound serving as a positive control. Final DMSO concentration was kept at 0.5% and final volume at 200 μL. The cells were then incubated at 37° C. under 5% CO2 for 3 days.
# On day five of the experiment, 40 μL of Alamar Blue reagent was added to each well and the mixture was allowed to incubate for 3 hours. Alamar Blue fluorescence was measured using SoftMax Pro software at 560 nm (excitation) and 590 nm (emission). IC50s were generated as an average of duplicates and represents the concentration of test compound that achieves 50% inhibition of cellular proliferation compared to negative control.
# FLT3 kinase = molecular target: T2, FLT3 kinase (Homo sapiens, UniProt P36888); test: Competition binding assay, FLT3 Kd
# T2 construct: made in house; host or cells: T7 phage display or HEK-293 cells
# T2 sequence (P36888 27-993): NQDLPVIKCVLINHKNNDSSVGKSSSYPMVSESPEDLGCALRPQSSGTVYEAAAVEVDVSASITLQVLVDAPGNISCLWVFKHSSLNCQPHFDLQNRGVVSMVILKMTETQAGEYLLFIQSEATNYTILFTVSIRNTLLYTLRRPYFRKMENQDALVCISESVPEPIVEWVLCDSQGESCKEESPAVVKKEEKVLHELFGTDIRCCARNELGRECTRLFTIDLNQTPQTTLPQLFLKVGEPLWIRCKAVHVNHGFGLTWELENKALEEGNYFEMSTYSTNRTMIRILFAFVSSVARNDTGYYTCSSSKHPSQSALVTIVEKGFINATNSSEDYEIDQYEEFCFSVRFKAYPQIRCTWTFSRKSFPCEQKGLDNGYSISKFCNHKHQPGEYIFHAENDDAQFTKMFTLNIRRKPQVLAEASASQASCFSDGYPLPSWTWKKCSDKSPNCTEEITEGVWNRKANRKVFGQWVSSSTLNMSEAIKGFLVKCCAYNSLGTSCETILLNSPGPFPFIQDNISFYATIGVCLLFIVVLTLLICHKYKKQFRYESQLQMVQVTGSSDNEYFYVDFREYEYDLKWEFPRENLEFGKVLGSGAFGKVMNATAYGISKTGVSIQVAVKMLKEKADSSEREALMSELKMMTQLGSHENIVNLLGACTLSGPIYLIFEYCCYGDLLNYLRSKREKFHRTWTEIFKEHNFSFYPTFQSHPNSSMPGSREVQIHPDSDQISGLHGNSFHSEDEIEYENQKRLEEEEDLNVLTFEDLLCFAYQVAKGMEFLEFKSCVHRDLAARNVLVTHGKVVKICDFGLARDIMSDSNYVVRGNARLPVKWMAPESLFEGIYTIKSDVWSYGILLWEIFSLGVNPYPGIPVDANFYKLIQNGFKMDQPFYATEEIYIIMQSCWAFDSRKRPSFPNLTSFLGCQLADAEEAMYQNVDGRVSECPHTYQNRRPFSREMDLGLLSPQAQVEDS
# Procedure: as §1, §2
# CSF-1R kinase = molecular target: T3, CSF-1R kinase (Homo sapiens, UniProt P07333); test: Competition binding assay, CSF-1R Kd
# T3 construct: made in house; host or cells: T7 phage display or HEK-293 cells
# T3 sequence (P07333 20-972): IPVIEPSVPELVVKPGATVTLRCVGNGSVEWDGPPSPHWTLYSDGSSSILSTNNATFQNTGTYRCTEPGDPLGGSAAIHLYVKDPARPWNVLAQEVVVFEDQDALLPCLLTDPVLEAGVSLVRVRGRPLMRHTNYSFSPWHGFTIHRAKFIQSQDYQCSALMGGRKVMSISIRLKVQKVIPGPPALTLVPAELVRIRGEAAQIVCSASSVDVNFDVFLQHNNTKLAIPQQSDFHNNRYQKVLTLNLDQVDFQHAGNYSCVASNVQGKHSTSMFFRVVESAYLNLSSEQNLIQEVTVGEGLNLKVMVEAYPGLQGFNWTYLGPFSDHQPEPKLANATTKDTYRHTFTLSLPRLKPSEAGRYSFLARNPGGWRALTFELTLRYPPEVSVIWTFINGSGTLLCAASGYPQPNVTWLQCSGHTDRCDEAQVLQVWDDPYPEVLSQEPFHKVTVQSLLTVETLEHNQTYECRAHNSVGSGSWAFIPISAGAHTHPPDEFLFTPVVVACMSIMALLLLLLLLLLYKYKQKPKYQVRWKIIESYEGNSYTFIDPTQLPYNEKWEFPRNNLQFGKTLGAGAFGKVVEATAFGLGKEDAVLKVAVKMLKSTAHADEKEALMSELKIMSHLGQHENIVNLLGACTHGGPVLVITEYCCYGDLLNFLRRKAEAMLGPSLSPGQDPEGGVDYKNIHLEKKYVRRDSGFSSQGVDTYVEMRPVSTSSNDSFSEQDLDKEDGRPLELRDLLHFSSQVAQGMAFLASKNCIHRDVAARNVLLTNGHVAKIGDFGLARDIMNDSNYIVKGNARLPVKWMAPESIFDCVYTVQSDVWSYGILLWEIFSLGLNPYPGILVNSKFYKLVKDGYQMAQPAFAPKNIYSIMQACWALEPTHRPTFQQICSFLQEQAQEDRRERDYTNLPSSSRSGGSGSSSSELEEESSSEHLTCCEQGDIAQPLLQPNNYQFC
# Procedure: as §1, §2
# T1 sequence (P10721 26-976): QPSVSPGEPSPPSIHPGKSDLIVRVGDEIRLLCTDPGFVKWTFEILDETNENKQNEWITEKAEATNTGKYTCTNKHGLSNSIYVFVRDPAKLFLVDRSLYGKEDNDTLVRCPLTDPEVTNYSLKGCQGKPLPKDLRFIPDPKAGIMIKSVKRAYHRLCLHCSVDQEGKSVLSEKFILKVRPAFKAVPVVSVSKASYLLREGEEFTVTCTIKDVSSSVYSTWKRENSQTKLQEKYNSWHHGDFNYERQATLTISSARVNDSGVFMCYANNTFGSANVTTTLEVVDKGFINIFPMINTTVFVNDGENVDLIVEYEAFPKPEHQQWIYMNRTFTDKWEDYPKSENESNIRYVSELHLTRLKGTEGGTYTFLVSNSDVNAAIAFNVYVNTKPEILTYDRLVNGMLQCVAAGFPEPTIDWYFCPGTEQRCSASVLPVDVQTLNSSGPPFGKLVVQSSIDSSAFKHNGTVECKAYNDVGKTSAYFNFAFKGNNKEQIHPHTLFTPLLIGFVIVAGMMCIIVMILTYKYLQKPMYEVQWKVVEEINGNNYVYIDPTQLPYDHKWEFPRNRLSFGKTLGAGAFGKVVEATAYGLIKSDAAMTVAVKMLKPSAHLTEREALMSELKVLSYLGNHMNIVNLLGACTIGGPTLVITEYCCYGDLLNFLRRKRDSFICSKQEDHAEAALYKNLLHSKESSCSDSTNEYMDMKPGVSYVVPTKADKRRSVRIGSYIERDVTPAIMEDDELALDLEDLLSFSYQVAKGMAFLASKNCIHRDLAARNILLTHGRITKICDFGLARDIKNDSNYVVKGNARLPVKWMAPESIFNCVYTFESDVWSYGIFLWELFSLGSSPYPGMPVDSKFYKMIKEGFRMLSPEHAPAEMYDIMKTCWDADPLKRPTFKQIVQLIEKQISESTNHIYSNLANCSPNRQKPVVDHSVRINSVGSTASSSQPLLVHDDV
Kd (KIT kinase) [nM],IC50 (MV4-11 cells) [nM],Kd (FLT3 kinase) [nM],Kd (CSF-1R kinase) [nM],Compound
10 to 100,10 to 100,1 to 10,10 to 100,"CC(C(=O)Nc1cc(C(C)(C)C)on1)c1ccc(-c2ccc(N)nc2)cc1 (racemic) [Example 71, 2-(4-(6-aminopyridin-3-yl)phenyl)-N-(5-tert-butylisoxazol-3-yl) propanamide]"
≤ 1,10 to 100,≤ 1,≤ 10,"CC(C)(C)c1cc(NC(=O)Nc2ccc(-c3ccc(NCCN4CCCCC4)nc3)cc2F)no1 [Example 27, 1-(5-tert-butylisoxazol-3-yl)-3-(2-fluoro-4-(6-(2-(piperidin-1-yl)ethylamino)pyridin-3-yl)phenyl)urea]"
≤ 1,≤ 1,≤ 1,≤ 10,"CC(C)(C)c1cc(NC(=O)Nc2ccc(-c3ccc(NCCCN4CCOCC4)nc3)cc2)no1 [Example 28, 1-(5-tert-butylisoxazol-3-yl)-3-(4-(6-(3-morpholinopropylamino)pyridin-3-yl)phenyl)urea]"
≤ 1,1 to 10,≤ 1,≤ 10,"CN1CCCC1CCNc1ccc(-c2ccc(NC(=O)Nc3cc(C(C)(C)C)on3)cc2)cn1 (centres unmarked) [Example 29, 1-(5-tert-butylisoxazol-3-yl)-3-(4-(6-(2-(1-methylpyrrolidin-2-yl)ethylamino)pyridin-3-yl)phenyl)urea]"
≤ 1,10 to 100,1 to 10,10 to 100,"CCN1CCCC1CNc1ccc(-c2ccc(NC(=O)Nc3cc(C(C)(C)C)on3)cc2)cn1 (centres unmarked) [Example 30, 1-(5-tert-butylisoxazol-3-yl)-3-(4-(6-((1-ethylpyrrolidin-2-yl)methylamino)pyridin-3-yl)phenyl)urea]"
≤ 1,10 to 100,≤ 1,≤ 10,"CN(C(=O)Nc1cc(C(C)(C)C)on1)c1ccc(-c2ccc(N)nc2)cc1 [Example 31, 1-(4-(6-aminopyridin-3-yl)phenyl)-3-(5-tert-butylisoxazol-3-yl)-1-methylurea]"
≤ 1,1 to 10,≤ 1,≤ 10,"CC(C)(F)c1cc(NC(=O)Nc2ccc(-c3ccc(N)nc3)cc2)on1 [Example 32, 5-(4-(3-(3-(2-fluoropropan-2-yl)isoxazol-5-yl)ureido)phenyl)pyridin-2-aminium methanesulfonate]"
≤ 1,≤ 1,≤ 1,≤ 10,"Nc1ccc(-c2ccc(NC(=O)Nc3cc(C4(C(F)(F)F)CC4)on3)cc2)cn1 [Example 33, 5-(4-(3-(5-(1-(trifluoromethyl)cyclopropyl)isoxazol-3-yl)ureido)phenyl)pyridin-2-aminium methanesulfonate]"
≤ 1,≤ 1,≤ 1,≤ 10,"CC(CF)(CF)c1cc(NC(=O)Nc2ccc(-c3ccc(N)nc3)cc2)no1 [Example 34, 5-(4-(3-(5-(1,3-difluoro-2-methylpropan-2-yl)isoxazol-3-yl)ureido)phenyl)pyridin-2-aminium methanesulfonate]"
1 to 10,≤ 1,≤ 1,≤ 10,"CC(C)(c1cc(NC(=O)Nc2ccc(-c3ccc(N)nc3)cc2)no1)C(F)(F)F [Example 35, methanesulfonate]"
≤ 1,1 to 10,≤ 1,≤ 10,"O=C(Nc1ccc(-c2ccc(NCCN3CCOCC3)nc2)cc1)Nc1cc(C2(C(F)(F)F)CC2)on1 [Example 36, 4-(2-(5-(4-(3-(5-(1-(trifluoromethyl)cyclopropyl)isoxazol-3-yl)ureido)phenyl)pyridin-2-ylamino)ethyl)morpholin-4-ium methanesulfonate]"
≤ 1,1 to 10,≤ 1,≤ 10,"CC(CF)(CF)c1cc(NC(=O)Nc2ccc(-c3ccc(NCCN4CCOCC4)nc3)cc2)no1 [Example 37, 4-(2-(5-(4-(3-(5-(1,3-difluoro-2-methylpropan-2-yl)isoxazol-3-yl)ureido)phenyl)pyridin-2-ylamino)ethyl)morpholin-4-ium methanesulfonate]"
≤ 1,10 to 100,1 to 10,≤ 10,"CC(C)(F)c1cc(NC(=O)Nc2ccc(-c3ccc(NCCN4CCOCC4)nc3)cc2)on1 [Example 38, 4,4-(2-(5-(4-(3-(3-(2-fluoropropan-2-yl)isoxazol-5-yl)ureido)phenyl)pyridin-2-ylamino)ethyl)morpholin-4-ium methanesulfonate]"
1 to 10,1 to 10,≤ 1,≤ 10,"CC(C)(c1cc(NC(=O)Nc2ccc(-c3ccc(NCCN4CCOCC4)nc3)cc2)no1)C(F)(F)F [Example 39, 4-(2-(5-(4-(3-(5-(1,1,1-trifluoro-2-methylpropan-2-yl)isoxazol-3-yl)ureido)phenyl)pyridin-2-ylamino)ethyl)morpholin-4-ium methanesulfonate]"
≤ 1,1 to 10,≤ 1,≤ 10,"Nc1ccc(-c2ccc(NC(=O)Nc3cc(C4(C(F)(F)F)CC4)on3)nc2)cn1 [Example 40, 1-(6′-amino-3,3′-bipyridin-6-yl)-3-(5-(1-(trifluoromethyl)cyclopropyl)isoxazol-3-yl)urea]"
≤ 1,1 to 10,≤ 1,≤ 10,"CC(CF)(CF)c1cc(NC(=O)Nc2ccc(-c3ccc(N)nc3)cn2)no1 [Example 41, 1-(6′-amino-3,3′-bipyridin-6-yl)-3-(5-(1,3-difluoro-2-methylpropan-2-yl)isoxazol-3-yl)urea]"
1 to 10,≤ 1,–,10 to 100,CS(=O)(=O)CCNc1ccc(-c2ccc(CC(=O)Nc3cc(C4(C(F)(F)F)CC4)on3)cc2)cn1 [Example 188]
1 to 10,≤ 1,–,≤ 10,Nc1cc(F)c(-c2ccc(CC(=O)Nc3cc(C4(C(F)(F)F)CC4)on3)cc2)cn1 [Example 189]
–,1 to 10,–,–,CC(C)(C)c1cc(NC(=O)Cc2ccc(-c3cnc4ccc(=O)[nH]c4c3)cc2)no1 [Example 191]
